Experimental data: US10702607B2, “Abuse-deterrent pharmaceutical compositions” (priority 2016, dated 2020)

Key:
laccase [1] = assay: Laccase mediator system (LMS) with oxycodone: oxygen concentration measurement; assay type: biochemical; details: mediator 2 mM, 10 units laccase ml^-1, 1000 mgL^-1 oxycodone
Protocol: During the reaction oxygen acts as electron acceptor and is reduced to water by laccases while the mediators are oxidized. The concentration of oxygen was measured as described above. Oxygen is consumed until the mediator is fully oxidized. […] The second step of the reaction is initiated by addition of the target substrate, which is consequently oxidized by the mediators.
In the present experiments the final reaction mixtures contained 0.2 to 6 mM mediator, 1-10 units of laccase per ml and 100-3000 mg L^−1 opioid.
The different mediators were used at concentrations of 2 mM with 10 units laccase ml^−1 and 1000 mgL^−1 oxycodone.

laccase [2] = assay: Laccase mediator system (LMS) with oxycodone: HPLC-MS/TOF measurement; details: mediator 2 mM
pepsin = target: T1, pepsin (Sus scrofa, UniProt P00791); assay: Pepsin digestion assay in simulated gastric fluid (SGF) with SDS-PAGE analysis; assay type: in vitro ADME; details: 37° C.
T1 construct: purchased Sigma-Aldrich (US) P7000
Protocol: SGF contains 0.084 M HCl, 0.035 M NaCl, 4000 U of pepsin per reaction mixture and has a pH level of 1.2 according to the United States Pharmacopeia (1995). A ratio of 10000 Units of pepsin activity to 1 mg of test protein was used throughout the assay, which is based on an evaluation of the average activity of pepsin recommended in the United States Pharmacopeia (24th edition, 2000) with some modifications. Pepsin (ref. # P7000) was purchased from Sigma-Aldrich (US). All proteins that were used were dissolved in 50 mM Tris-HCl (pH 9.5) at a concentration of 5 mg mL^−1. The reaction mixture contained 1.52 mL of SGF preheated to 37° C. before the addition of 0.08 mL of protein solution (Thomas et al., 2004). The mixture was placed into a thermomixer at 37° C. and was shaken at 400 rpm. For denaturating SDS-polyacrylamide gel electrophoresis (SDS-PAGE) analysis samples of 160 μl were removed at 0 minutes, 0.5 minutes, and 15 minutes after initiation.
SDS-PAGE was performed to analyze and visually inspect stained protein bands whether the protein band is still intact or fragmented after the digestion assay. […]
Each 160 μl of the digestion samples was quenched by […] of 200 mM NaHCO3 as neutralization step and 56 μl 4× Laemmli (Laemmli 1970) buffer for electrophoresis. Samples were immediately heated up to 99° C. for 10 minutes and analyzed directly or stored at −20° C. […]

T1 sequence (P00791 60-385): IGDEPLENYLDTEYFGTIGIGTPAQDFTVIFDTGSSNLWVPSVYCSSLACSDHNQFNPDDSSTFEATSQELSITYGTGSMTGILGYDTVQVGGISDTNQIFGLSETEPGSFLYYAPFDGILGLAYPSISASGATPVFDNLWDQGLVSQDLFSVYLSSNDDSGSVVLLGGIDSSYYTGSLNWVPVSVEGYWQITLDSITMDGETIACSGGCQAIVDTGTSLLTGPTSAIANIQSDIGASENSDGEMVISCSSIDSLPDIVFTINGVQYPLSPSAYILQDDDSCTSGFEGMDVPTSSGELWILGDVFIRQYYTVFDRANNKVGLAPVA

| Compound | oxygen concentration after the addition of oxycodone (oxidation of oxycodone) (laccase [1]) | effect of mediator on oxycodone (MS-TOF analysis) (laccase [2]) | proteolytic degradation (pepsin; SGF pH 1.2, pepsin 10000 Units per mg test protein, samples at 0, 0.5, 15 minutes, SDS-PAGE) | protein band on SDS-PAGE after pepsin digestion (pepsin; SGF pH 1.2, pepsin) |
| --- | --- | --- | --- | --- |
| CCOc1cc(C=O)ccc1O [ethylvanillin] | drop in oxygen concentration |  |  |  |
| O=C(O)c1cc(O)c(O)c(O)c1 [gallic acid] | no apparent effect | no apparent effect |  |  |
| COc1cc(C(=O)O)cc(OC)c1O [syringic acid] | drop in oxygen concentration |  |  |  |
| COc1cc(C=O)ccc1O [vanillin] | drop in oxygen concentration |  |  |  |
| HRP: horseradish peroxidase (EC 1.11.1.7) |  |  | very susceptible to proteolytic degradation | vanished within seconds |
